According to patent publication US20090176741A1, “MODULATION OF THE IMMUNE SYSTEM BY INOSITOL PHOSPHOLIPIDS” (priority 2006, published 2009):

Experiments:
[1] = tested on: DN32 cells (NKT cell line) co-cultured with CD1d transfected T84D cells; test: CD1d-restricted NKT cell activation (T84D/DN32 co-culture, IL-2 ELISA); assay type: cell-based, murine; settings: for CD1d dependent NKT cell activation (IL-2 present in the supernatants): solvent control, PI or myo-inositol, FIG. 2
Procedure: (§1) A CD1d transfected epithelial cell line T84D was pulsed with alpha-GalactosylCeramide and co-cultured with PI at different concentrations. NKT cell activation was determined by measurement of IL-2 present in the supernatants. FIG. 2: Phosphatidyl-inositol but not myo-inositol blocks CD1d dependent NKT cell activation. A CD1d transfected epithelial cell line T84D was pulsed with a GalactosylCeramide and co-cultured with either solvent control, PI or myo-inositol. NKT cell activation was determined by measurement of IL-2 present in the supernatants. FIG. 3: Differential effect of PI and PS on cellular viability and immune suppression. T cells were suspended at 10^6 cells/ml in 24-wells plates (1 ml suspension per well). Cells were either left untreated (PMA 0 Cal 0) or activated with 5 ng/ml PMA +0.1 μg/ml calcium ionophore A23187 (PMA 5 ng/ml Cal 0.1 ug/ml) in the presence of PI or PS at the indicated concentrations (expressed in pg/ml). Panel A: Following a 24 hour incubation period in the presence of the indicated lipids and stimuli cellular viability was measured using flow cytometric detection of 7-AAD stained cells. […] FIG. 4: IPL strongly affects early survival in oxazolone colitis model. For experimental details see Example 2A. FIG. 5: Suppression of IL-2 production by intestinal T cells upon IPL intrarectal treatment of oxazolone-colitis mice. Mice were treated with saline (group A) or PI (group B) twenty minutes prior to challenge with oxazolone to induce colitis. Mice were sacrificed and intestinal T cells were analyzed for IL-2 production upon stimulation by aCD3/aCD28 during a period of 48 hours (panel A) or 72 hours (panel B). […] C Histopathology of the whole colon was assessed by blindly scoring each separate field of view at a 4× magnification by means of a TNBS score. […]
On day 0, T84D cells (a human epithelial cell line transfected with CD1d) were incubated overnight with a GalCer (10 mg/ml). […] Supernatants were collected and IL-2 cytokine production by DN32 (reflecting T cell activation) was determined by means of ELISA.

T cells [2] = test: Cellular viability of T cells (flow cytometric 7-AAD detection); assay type: cell-based; settings: FIG. 3A
Procedure: as §1, with “B). ALN=axillair LN; MLN=mediastinal LN; ILN=iliacal LN. For further details see Example 2A. FIG. 6: Treatment with IPL (non-liposomal aerosol) prevents the typical histo-pathological changes that are associated with an asthma mouse model. For experimental details see Example 2B.” for “B).”

T cells [3] = test: T cell activation measured by IL-2 cytokine production; assay type: cell-based; settings: for T cell activation measured by IL-2 cytokine production: PMA + calcium ionophore A23187
Procedure: as §1, with “B). ALN=axillair LN; MLN=[…] LN; ILN=iliacal LN. For further details see Example 2A. FIG. 6: Treatment with IPL (non-liposomal aerosol) prevents the typical histo-pathological changes that are associated with an asthma mouse model. For experimental details see Example 2B. FIG. 7: Treatment with PI (aerosol) prevents the eosinophilia that is associated with an asthma mouse model. For experimental details see Example 2B. FIG. 8: effects of intraperitoneal injection of PI in the TNBS colitis model. […] B The percentage of weight during TNBS colitis is shown. Each dot represents the mean of weights of each group per 0.5 day. Error bars indicate the standard error of the mean. Asterisks indicate significant differences (p<0.05) between TNBS treated mice that received i.p. injections of PI and saline.” for “B).”

oxazolone colitis = test: Oxazolone colitis model, intra-rectal PI; assay type: in vivo, mice
Procedure: On day 0 male wild type black/6 mice (Charles Rivers) of 7-10 weeks old were sensitized epicutaneously with 150 μl 3% 4-ethoxymeyhylene-2-phenyl-oxazolin-5-one (oxazolone; Sigma) in 100% ethanol. At day 5, mice were challenged, under anesthesia of ketamine (80 mg/kg) and xylazine (10 mg/kg), by rectal administration of 100 μl 2% oxazolone in aqueous ethanol (50%). Twenty minutes prior to challenge mice were treated intra-rectally with 100 μl saline (control) or PI (2 mg/ml). All […] groups contained 8 mice. Mice were weighted at day 5, 6, 7, and 8 and were sacrificed at day 8.
Colonic tissue was fixed with 4% natural buffered formalin solution, embedded in paraffin, cut into 5μ tissue sections, and stained with hematoxylin and eosin (H&E). Using a score that has been described previously for oxazolone colitis (REF), the stained sections were examined for evidence of colitis. Spleen, axillary lymph nodes (ALN), mesenteric lymph nodes (MLN) and iliacal lymph nodes (ILN) were isolated and stimulated ex-vivo with either PBS (control) or with aCD3/aCD28 (100 μl of 2 μg/ml each) in IMDM medium. After 48 and 72 hours, the production of IL-2 was measured by means of ELISA (Beckton & Dickinson).

OVA-induced asthma = test: OVA asthma model, intra-tracheal PI; assay type: in vivo, mice; settings: PI intra-tracheally before OVA aerosol challenge
Procedure: On days one and eight male wildtype Balb/c mice (Charles Rivers) of 7-10 weeks old were sensitized by intra-peritoneal (i.p.) injection of 20 μg of OVA (Sigma), emulsified in 2.25 mg of alum (AlumImuject; Pierce). On days 15, 16 and 17 mice were sedated and received 80 μl of one of three solutions of PI (0 μg/ml, 200 μg/ml or 2 mg/ml) intra-tracheally (i.t). Subsequently the mice were challenged by 20 minutes of inhalation exposure to 60 μl of aerosols containing OVA (1% in saline). All three groups contained 8 mice. Mice were sacrificed at day 18.
Lungs were flushed with 3 ml saline and the cells in this Broncho Alveolar Lavage (BAL) were identified and quantified through FACS analysis. Subsequently the lungs were freeze-fixed, cut into 5 μm tissue sections and stained with May-Grunwald-Giemsa (MGG). The stained sections were examined for the presence of inflammatory cell infiltration such as eosinophils.

TNBS colitis = TNBS colitis model, intraperitoneal PI; assay type: in vivo, mice
Procedure: Colitis was induced as described previously (Scheiffele, F. and Fuss, I J., 2001, Curr. Protocols Immunol. 15.19.1-15.19.14). In short, on day-7 SJL mice were sensitized epicutaneously with 150 μl 2.5% 2,4,6-trinitrobenzene sulfonic acid (TNBS; Sigma) in 50% ethanol. On day 0, mice were challenged, under anesthesia of isoflurane gas, by rectal administration of 150 μl 2.5% TNBS in 50% ethanol. Negative control mice were challenged with 50% ethanol only. […] Positive (TNBS treated) and negative (ethanol treated) control mice were treated with an intraperitoneal (i.p.) injection of 150 μl of saline at 0, 12, 24, 36, 48 and 60 h. The PI treatment group was treated with […] of 5 mg/ml PI suspended in saline at the same time points. Mice were weighted at 0, 12, 24, 36, 48 and 60 h and were sacrificed at 60 h. Colonic tissue was folded into Swiss rolls, fixed in 4% natural buffered formalin solution and embedded in paraffin. Sections of 5 μm thickness were generated, stained with hematoxylin (Vector Laboratories) and eosin (Sigma) and analyzed by microscopy. Histology was quantified by scoring each separate field of view at a 4× magnification from distal to proximal by means of a previously described TNBS scoring system (Scheiffele, F. and Fuss, I J., 2001, Curr. Protocols Immunol. 15.19.1-15.19.14). Single cell suspensions were made of iliac lymph nodes (ILNs) and mesenteric lymph nodes (MLNs) by sieving trough an 80 μm filter and subsequently lymphocytes were cultured and stimulated with 2 μg/ml anti-CD3 and 2 μg/ml anti-CD28 antibodies. After 48 h of culture the supernatant was collected and release of the pro-inflammatory cytokines IFN-γ and IL-17 (Zhang, Z. et al., 2006, Inflamm. Bowel Dis., 12:382-388) and the anti-inflammatory cytokine IL-10 were measured by means of ELISA (IL-17) or CBA (IFN-γ and IL-10).

[4] = Observation after intravenous PI; assay type: in vivo, mice; settings: 200 μl of PI 2 mg/ml (400 μg) intravenously, 3 hour observation period
From the text: It will be recognized by those skilled in the art that the optimal quantity and spacing of individual dosages for achieving the therapeutic effects of the pharmaceutical composition, food item or food supplement described herein may easily be determined by the skilled person. They will be determined by the nature and extent of the condition being treated, as well as by the form, route and site of administration, and the particular individual undergoing treatment, and that such optima can be determined by conventional techniques. Typically, the treatment will involve the administration of inositol phospholipid in amount of approximately 0.001 to 1 gram , preferably 0.005 to 0.5 gram, more preferably 0.01 to 0.1 gram per kilogram of body weight per 24 hours. It will also be appreciated by those skilled in the art that the optimal dosage regimen, i.e. the number of doses, can be ascertained using conventional course of treatment determination tests well known in the art. […] Generally speaking, a therapeutic dosing regimen will involve the administration of the selected dosage formulation comprising an inositol phospholipid, e.g. a PI aerosol spray, at least once daily, preferably one to four times daily, until the symptoms have subsided. Or given in times of remission, in order to prevent a disease flare-up (exacerbation). […]

[5] = tested on: activated peripheral blood cells; settings: Caselli et al. 1992; cited from earlier work
[6] = 24 hour incubation, untreated or 5 ng/ml PMA + 0.1 μg/ml A23187
[7] = anti-CD3/anti-CD28 re-stimulation, 48 h, vs saline treated group, p<0.05, FIG. 8D

O[C@H]1[C@H](O)[C@@H](O)[C@H](O)[C@@H](O)[C@H]1O [myo-inositol, reference compound]
CD1d dependent NKT cell activation (IL-2 present in the supernatants) [1]: no significant suppressive effect

phosphatidyl inositol [PI]
NKT cell activation (IL-2 present in the supernatants) ([1]; T84D pulsed with alpha-GalactosylCeramide, PI at different concentrations, FIG. 1): Dose-dependent inhibition | CD1d dependent NKT cell activation (IL-2 present in the supernatants) [1]: blocks | cellular viability (T cells [2]; [6]): does not significantly affect cellular viability | cellular viability (T cells [2]; up to the highest dose tested (100 μg/ml)): does not affect cellular viability | T cell activation measured by IL-2 cytokine production (T cells [3]; FIG. 3B): inhibitory effect | reversibility of the suppressive effect (T cells [3]; data not shown): reversible | T cell activation (T cells [3]; phorbol ester and calcium ionophore, or stimulation of CD3 and CD28, FIG. 3B): directly inhibit | weight loss (oxazolone colitis; 100 μl PI 2 mg/ml intra-rectally 20 min prior to oxazolone challenge): diminished weight loss | survival (oxazolone colitis; 100 μl PI 2 mg/ml intra-rectally 20 min prior to oxazolone challenge, FIG. 4): increased survival | IL-2 production upon ex-vivo stimulation of intestinal T cells (oxazolone colitis; aCD3/aCD28 stimulation, 48 and 72 hours, FIG. 5): suppressed | histopathological changes of the lungs (OVA-induced asthma; FIG. 6): reduces | influx of eosinophils (BAL) (OVA-induced asthma; FIG. 7): strongly inhibits | general appearance (fur, behavior) (TNBS colitis; PI 5 mg/ml i.p. every 12 h vs saline, FIG. 8A): appeared less diseased | weight loss (TNBS colitis; PI i.p. vs control saline treatment, FIG. 8B): dramatic reduction in weight loss | start of weight recovery (TNBS colitis; PI i.p., saline treated mice did not re-gain weight, FIG. 8B): 1.5 days | IL-10 production (TNBS colitis; anti-CD3/anti-CD28 re-stimulation, 48 h, vs saline treated group, FIG. 8D): no difference | IFN-γ production by MLNs (TNBS colitis; [7]): significantly less production | IL-17 production by ILNs and MLNs (TNBS colitis; [7]): significantly less production | colon histology (TNBS score) (TNBS colitis; day 3, field of view number 5, FIG. 8C): near normal histology | symptoms or adverse signs [4]: did not show any symptoms or adverse signs | DNA synthesis in activated peripheral blood cells [5]: only partially effective

phosphatidyl serine [PS, reference compound]
cellular viability (T cells [2]; [6]): toxic for activated cells in a dose-dependent manner | T cell activation measured by IL-2 cytokine production (T cells [3]; FIG. 3B): stimulatory effect | DNA synthesis in activated peripheral blood cells [5]: inhibition
